In this test the test system is Glucose-6-Phosphatase activity. The test is described as follows: Glycogenolysis (glucose release after glucagon). It is filed as cell-based, human. To be noted: 3D spheroids, 10 nmol/L glucagon, 3 h. As to the method:
Glycogen Glucose metabolism. iHeps in 2D and 3D culture were investigated to assess the glycogen storage and glucose homeostasis regulation. Briefly, at specific time points along the 2D and 3D cultures, cells were treated for 3 h with a homemade low-glucose medium with or without 10 nmol/L glucagon (Sigma-Aldrich) to induce glucose release from the glycogen storage. Media samples were then collected and glucose concentration was determined using the High Sensitivity Glucose Assay Kit (Sigma). Periodic acid-Schiff (PAS) staining was then carried out on 2D and 8 μm cryosections of the very same samples. Specimens were fixed for 10 minutes at room temperature with 4% formol then treated with 1% periodic acid solution (Sigma-Aldrich) for 10 minutes. After washing, slides were immersed in Schiff's reagent (Fisher Scientific) for 30 minutes at RT. Before counterstaining with Mayer's Hematoxylin (Sigma), samples were washed carefully with Scott's tap water.
To investigate further, 3D specimens (iHeps and PHHs) were incubated for 4 h with 25 mM D-Glucose and 100 nM insulin to mimic hyperglycemia. Glycogen synthesis and storage were then determined using the Periodic Acid-Schiff (PAS) Staining Kit (Sigma-Aldrich) as described above. […] The media were then collected, and glucose levels determined using the High Sensitivity Glucose Assay Kit (Sigma).

On to glucagon, for which the “glycogenolysis, times higher than basal release (w/o glucagon)” value is 3 times.

The values above are taken from US20240271099A1, “METHOD FOR GENERATING HIGHLY FUNCTIONAL HEPATOCYTES BY DIFFERENTIATING HEPATOBLASTS” (INSTITUT NATIONAL DE LA SANTÉ ET DE LA RECHERCHE MÉDICALE, priority 2021, published 2024).
